Results: patent US11760775B2, “Steroids and protein-conjugates thereof” (Regeneron Pharmaceuticals, Inc., priority 2016, dated 2023)
Where a name gives a salt, the structure may show the parent alone. Read-outs that look alike come from different tables or passages of the source.

Legend:
[1] = target: Glucocorticoid Receptor (GR) (Homo sapiens (Human), UniProt P04150); assay: LanthaScreen TR-FRET GR Competitive Binding Assay (cell free)
[2] = test system: GR activation in 293/PRLR/GRE-Luc cells (HEK293/9xUAS-Luc2P/pBind-GR/PRLR-HA high cells); assay: GR co-activator luciferase reporter cell based assay in 293/PRLR/GRE-Luc cells; parameters: species or system human; conditions: for HEK293/9xUAS-Luc2P/pBind-GR/PRLR-HA high cells activation relative to Budesonide: fold activation vs Budesonide; for Emax: HEK293, read-out: Activation (fold activation relative to Budesonide) in HEK293/9xUAS-Luc2P/pBind-GR/PRLR-HA high cells
Excerpt: Bioassays described herein were used to assess the efficacy of free steroids and anti-PRLR-ncADCs. In one example, the bioassay assessed the activity of steroids, after internalization of a site-specific anti-PRLR-GC steroid ADC into cells, to bind to pBIND-GR and subsequent luciferase reporter activation. […] Then such stable cell line was further transfected with a chimeric receptor consisting of a GR ligand binding domain fused to the yeast Gal4 DNA binding domain (pBind-GR, Promega Cat #E1581), and a Gal4 upstream activator sequence (9×Gal4UAS-Luc2P) that drives luciferase gene expression.
(§1) For this assay, 20,000 cells were seeded in 96-well plates in media containing DMEM supplemented with 10% FBS and pencillin/streptomycin (complete media) and grown overnight at 37° C. in 5% CO2. […] Luciferase activity was determined by addition of OneGlo™ reagent (Promega, Cat #E6130) and relative light units (RLUs) were measured on a Victor luminometer (Perkin Elmer). The EC50 values were determined from a four-parameter logistic equation over a 10 point response curve using GraphPad Prism.
as §1, with “One-Glo™” for “OneGlo™”, “10-point” for “10 point”, “Prism. […] Minimal activation in this assay is defined as less than 10% of the maximal activation measured with the free payload.” for “Prism.”

[3] = Homo sapiens, HEK293, read-out: HEK293/9xUAS-Luc2P/pBind-GR/PRLR-HA high cells EC50
[4] = Homo sapiens, 72 hours of incubation
[5] = Homo sapiens, HEK293, 72 hours of incubation, read-out: HEK293/9xUAS-Luc2P/pBind-GR/PRLR-HA high cells EC50

Sequence of Glucocorticoid Receptor (GR) (P04150 524-758): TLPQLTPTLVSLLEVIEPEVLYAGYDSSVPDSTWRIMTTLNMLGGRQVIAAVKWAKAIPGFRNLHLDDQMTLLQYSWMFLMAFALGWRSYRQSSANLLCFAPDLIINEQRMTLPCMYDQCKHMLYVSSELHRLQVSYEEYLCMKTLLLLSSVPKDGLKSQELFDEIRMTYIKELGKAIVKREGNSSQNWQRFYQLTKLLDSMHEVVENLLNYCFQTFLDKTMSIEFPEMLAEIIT

Row | Compound | IC50 [1] [nM] | Emax [2, 4] [%] | EC50 [2, 5] [nM] | other results
1 | C[C@@H]1C[C@H]2[C@@H]3C[C@H](F)C4=CC(=O)C=C[C@]4(C)[C@@]3(F)[C@@H](O)C[C@]2(C)[C@@]1(O)C(=O)CN [Compound 4d, (1R,2S,8S,10S,11S,13R,14R,15S,17S)-14-(2-Aminoacetyl)-1,8-difluoro-14,17-dihydroxy-2,13,15-trimethyltetracyclo 18.7.0.0^2,70.0^11,15]heptadeca-3,6-dien-5-one trifluoroacetate] | 10 to 50 |  |  | EC50 [2, 3]: 10 to 50 nM; HEK293/9xUAS-Luc2P/pBind-GR/PRLR-HA high cells activation relative to Budesonide [2]: Partial
2 | CCCC1O[C@@H]2C[C@H]3[C@@H]4C[C@H](F)C5=CC(=O)C=C[C@]5(C)[C@@]4(F)[C@@H](O)C[C@]3(C)[C@]2(C(=O)COc2ccc(N)c(OC)c2)O1 (stereo partly drawn) [Compound 6-II, (1S,2S,4R,8S,9S,11S,12R,13S,19S)-8-[2-(4-Amino-3-methoxyphenoxy)acetyl]-12,19-difluoro-11-hydroxy-9,13-dimethyl-6-propyl-5,7-dioxapentacyclo[10.8.0.0^2,90.0^4,80.0^13,18]icosa-14,17-dien-16-one trifluoroacetate] | < 10 |  |  | EC50 [2, 3]: < 10 nM; HEK293/9xUAS-Luc2P/pBind-GR/PRLR-HA high cells activation relative to Budesonide [2]: Full
3 | CCCC1O[C@@H]2C[C@H]3[C@@H]4C[C@H](F)C5=CC(=O)C=C[C@]5(C)[C@@]4(F)[C@@H](O)C[C@]3(C)[C@]2(C(=O)COc2ccc(N)c(F)c2)O1 (stereo partly drawn) [11-14 R/S, (1S,2S,4R,8S,9S,11S,12R,13S,19S)-8-[2-(4-Amino-3-fluorophenoxy)acetyl]-12,19-difluoro-11-hydroxy-9,13-dimethyl-6-propyl-5,7-dioxapentacyclo[10.8.0.0^2,9.0^4,80.0^13,18]icosa-14,17-dien-16-one] | < 10 | > 75 | < 10 | 
4 | C[C@]12C=CC(=O)C=C1CC[C@@H]1[C@@H]2[C@@H](O)C[C@@]2(C)[C@H]1C[C@H]1O[C@@H](c3ccc(N)cc3)O[C@]12C(=O)CO [Compound 7-1R] |  |  |  | GRE-Luc activation ([2]; 293/PRLR/GRE-Luc cells, 72 hours): full GRE-Luc activation; EC50 ([2]; 293/PRLR/GRE-Luc cells, 72 hours, read-out: EC50 of GRE-Luc activation): 10 to 100 nM
5 | CCCC1O[C@@H]2C[C@H]3[C@@H]4CCC5=CC(=O)C=C[C@]5(C)[C@H]4[C@@H](O)C[C@]3(C)[C@]2(C(=O)CN(C)C)O1 (stereo partly drawn) [11-3 R/S, (1S,2S,4R,8S,9S,11S,12S,13R)-8-[2-(Dimethylamino)acetyl]-11-hydroxy-9,13-dimethyl-6-propyl-5,7-dioxapentacyclo[10.8.0.0^2,90.0^4,80.0^13,18]icosa-14,17-dien-16-one] | < 10 | 20 to 75 | 10 to 100 | 
6 | CCC[C@@H]1O[C@@H]2C[C@H]3[C@@H]4C[C@H](F)C5=CC(=O)C=C[C@]5(C)[C@@]4(F)[C@@H](O)C[C@]3(C)[C@]2(C(=O)COc2ccc(N)cc2)O1 [Compound R-6-I] | < 10 |  |  | EC50 [2, 3]: < 10 nM; HEK293/9xUAS-Luc2P/pBind-GR/PRLR-HA high cells activation relative to Budesonide [2]: Full
7 | C[C@]12C=CC(=O)C=C1CC[C@@H]1[C@@H]2[C@@H](O)C[C@@]2(C)[C@H]1C[C@H]1O[C@@H](c3ccc(N)cc3)O[C@]12C(=O)CO [7-1 R, (1S,2S,4R,6R,8S,9S,11S,12S,13R)-6-(4-Aminophenyl)-11-hydroxy-8-(2-hydroxyacetyl)-9,13-dimethyl-5,7-dioxapentacyclo[10.8.0.0^2,90.0^4,80.0^13,18]icosa-14,17-dien-16-one] | 10 to 100 | > 75 | < 10 | 
8 | CCCC1O[C@@H]2C[C@H]3[C@@H]4CCC5=CC(=O)C=C[C@]5(C)[C@H]4[C@@H](O)C[C@]3(C)[C@]2(C(=O)CN)O1 (stereo partly drawn) [11-1 R/S, (1S,2S,4R,8S,9S,11S,12S,13R)-8-(2-Aminoacetyl)-11-hydroxy-9,13-dimethyl-6-propyl-5,7-dioxapentacyclo[10.8.0.0^2,9. 0^4,80.0^13,18]icosa-14,17-dien-16-one] | 10 to 100 | > 75 | < 10 | 
9 | CCCC1O[C@@H]2C[C@H]3[C@@H]4C[C@H](F)C5=CC(=O)C=C[C@]5(C)[C@@]4(F)[C@@H](O)C[C@]3(C)[C@]2(C(=O)COc2ccc(N)cc2)O1 (stereo partly drawn) [11-12 R/S, (1S,2S,4R,8S,9S,11S,12R,13S,19S)-8-[2-(4-Aminophenoxy)acetyl]-12,19-difluoro-11-hydroxy-9,13-dimethyl-6-propyl-5,7-dioxapentacyclo[10.8.0.0^2,90.0^4,80.0^13,18]icosa-14,17-dien-16-one] | 10 to 100 | > 75 | < 10 | 
10 | CCCC1O[C@@H]2C[C@H]3[C@@H]4C[C@H](F)C5=CC(=O)C=C[C@]5(C)[C@@]4(F)[C@@H](O)C[C@]3(C)[C@]2(C(=O)COc2cccc(N)n2)O1 (stereo partly drawn) [11-17 R/S, (1S,2S,4R,8S,9S,11S,12R,13S,19S)-8-{2-[(6-Aminopyridin-2-yl)oxy]acetyl}-12,19-difluoro-11-hydroxy-9,13-dimethyl-6-propyl-5,7-dioxapentacyclo[10.8.0.0^2,90.0^4,80.0^13,18]icosa-14,17-dien-16-one] | < 10 | > 75 | 10 to 100 | 
11 | CCCC1O[C@@H]2C[C@H]3[C@@H]4C[C@H](F)C5=CC(=O)C=C[C@]5(C)[C@@]4(F)[C@@H](O)C[C@]3(C)[C@]2(C(=O)COc2ccc(CN)cc2)O1 (stereo partly drawn) [11-15 R/S, (1S,2S,4R,8S,9S,11S,12R,13S,19S)-8-{2-[4-(Aminomethyl)phenoxy]acetyl}-12,19-difluoro-11-hydroxy-9,13-dimethyl-6-propyl-5,7-dioxapentacyclo[10.8.0.0^2,90.0^4,80.0^13,18]icosa-14,17-dien-16-one] | < 10 | 20 to 75 | 10 to 100 | 
12 | CC(=O)OCC(=O)[C@@]1(OC(C)=O)[C@@H](C)C[C@H]2[C@@H]3C[C@H](F)C4=CC(=O)C=C[C@]4(C)[C@@]3(F)[C@@H](O)C[C@@]21C [Diflorasone, diflorasone, reference compound] |  | > 75 | < 10 | 
13 | CCCC1O[C@@H]2C[C@H]3[C@@H]4C[C@H](F)C5=CC(=O)C=C[C@]5(C)[C@@]4(F)[C@@H](O)C[C@]3(C)[C@]2(C(=O)CNc2ccc(N)cc2)O1 (stereo partly drawn) [Compound 5-I, (1S,2S,4R,8S,9S,11S,12R,13S,19S)-8-{2-[(4-Aminophenyl)amino]acetyl}-12,19-difluoro-11-hydroxy-9,13-dimethyl-6-propyl-5,7-dioxapentacyclo[10.8.0.0^2,90.0^4,80.0^13,18]icosa-14,17-dien-16-one Trifluoroacetate] |  |  |  | EC50 [2, 3]: < 10 nM; HEK293/9xUAS-Luc2P/pBind-GR/PRLR-HA high cells activation relative to Budesonide [2]: Full
14 | CCCC1O[C@@H]2C[C@H]3[C@@H]4C[C@H](F)C5=CC(=O)C=C[C@]5(C)[C@@]4(F)[C@@H](O)C[C@]3(C)[C@]2(C(=O)COc2ccc(N)c(F)c2)O1 (stereo partly drawn) [Compound 6-III, (1S,2S,4R,8S,9S,11S,12R,13S,19S)-8-[2-(4-Amino-3-fluorophenoxy)acetyl]-12,19-difluoro-11-hydroxy-9,13-dimethyl-6-propyl-5,7-dioxapentacyclo[10.8.0.0^2,90.0^4,8.0^13,18]icosa-14,17-dien-16-one] |  |  |  | EC50 [2, 3]: < 10 nM
15 | (6S,8S,9S,10R,11S,13S,14S,17R)-17-(2-(4-Aminophenoxy)acetyl)-11,17-dihydroxy-6,10,13-trimethyl-6,7,8,9,10,11,12,13,14,15,16,17-dodecahydro-3H-cyclopenta[a]phenanthren-3-one [Compound 6-VI] |  |  |  | HEK293/9xUAS-Luc2P/pBind-GR/PRLR-HA high cells activation relative to Budesonide [2]: Full; EC50 ([2]; read-out: HEK293/9xUAS-Luc2P/pBind-GR/PRLR-HA high cells EC50): < 10 nM
16 | C[C@@H]1C[C@H]2[C@@H]3CCC4=CC(=O)C=C[C@]4(C)[C@@]3(F)[C@@H](O)C[C@]2(C)[C@@]1(O)C(=O)CO [compound 1c, dexamethasone, reference compound] |  |  |  | EC50 ([2]; 293/PRLR/GRE-Luc cells, 72 hours, ADCs with or without cyclodextrin linkers, read-out: EC50): 8.4 nM; Maximal Activation ([2]; 293/PRLR/GRE-Luc cells, 72 hours, relative to free payload): Full (Full activation in this assay is defined between 90 and 100% of the maximal activation measured with the free payload)
17 | CC(C)C(=O)OCC(=O)[C@@]12O[C@H](c3ccc(N)cc3)O[C@@H]1C[C@H]1[C@@H]3CCC4=CC(=O)C=C[C@]4(C)[C@H]3[C@@H](O)C[C@@]12C [8-1 R, 2[(1S,2S,4R,8S,9S,11S,12S,13R)-6-(4-Aminophenyl)-11-hydroxy-9,13-dimethyl-16-oxo-5,7-dioxapentacyclo[10.8.0.0^2,90.0^4,80.0^13,18]icosa-14,17-dien-8-yl]-2-oxoethyl 2-methylpropanoate] |  |  | 10 to 100 | Activation (fold activation relative to Budesonide) in HEK293/9xUAS-Luc2P/pBind-GR/PRLR-HA high cells ([2]; 72 hours of incubation): full activation
